Test results: PMC4932537, “Search for Potent and Selective Aurora A Inhibitors Based on General Ser/Thr Kinase Pharmacophore Model” (Pharmaceuticals, 2016)

Experiments:
Aurora A = target: T1, Aurora A (Homo sapiens, UniProt O14965); assay: Aurora A kinase inhibition (biochemical assay); details: Table 2; Mean ± SEM, four repeats; read-out: Aurora A kinase inhibition IC50
T1 sequence (O14965 1-403): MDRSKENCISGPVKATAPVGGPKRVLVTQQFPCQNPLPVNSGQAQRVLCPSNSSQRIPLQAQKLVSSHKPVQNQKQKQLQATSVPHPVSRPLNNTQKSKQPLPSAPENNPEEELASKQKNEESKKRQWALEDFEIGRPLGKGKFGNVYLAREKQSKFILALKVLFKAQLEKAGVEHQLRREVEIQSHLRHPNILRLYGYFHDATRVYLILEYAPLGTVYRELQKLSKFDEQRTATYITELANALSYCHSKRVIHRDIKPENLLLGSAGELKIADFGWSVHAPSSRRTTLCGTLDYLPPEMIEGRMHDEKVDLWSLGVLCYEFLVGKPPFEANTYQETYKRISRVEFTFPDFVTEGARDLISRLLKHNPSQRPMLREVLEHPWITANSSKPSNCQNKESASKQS

[1] = system: RS4;11 (acute lymphoblastic leukemia); assay: MTT cytotoxicity, RS4;11; format: cell-based; details: Homo sapiens; RS4;11, MTT, 72 h
From the text: (§1) All cells lines were purchased in ATCC (Manassas, VA, USA), except for human primary fibroblasts (HFB), which were a generous gift from Dashinimaev E.B. (Koltsov Institute of Developmental Biology). H1299 (lung adenocarcinoma), H23 (lung adenocarcinoma), Colo320 (colon carcinoma), RS4;11 (acute lymphoblastic leukemia), PC3 (prostate adenocarcinoma) and HL-60 (acute promyelocytic leukemia) were cultivated in RPMI-1640 medium, with addition of 10% fetal calf serum (HyClone, South Logan, Utah, USA) and 2 mM L-Glutamine at 37 °C, 5% CО2. MDA-MB-453 (mammary adenocarcinoma), A549 (lung adenocarcinoma), HCT-116 (colon carcinoma), A431 (epidermoid carcinoma), MDA-MB-231 (mammary adenocarcinoma), BxPC3 (pancreatic adenocarcinoma), MEF (mouse embryonic fibroblasts, SV-40 immortalized), MEF Bax^−/−/Bak^−/− knockout cells (mouse embryonic fibroblasts, SV-40 immortalized, resistant to apoptosis) were cultivated in DMEM medium, with addition of 10% fetal calf serum (HyClone) and 2 mM L-Glutamine at 37 °C, 5% CО2.
(§2) Cells were seeded in 96-well plates (Corning, NY, USA): 5000 cells per well for adhesive cultures and cells, 25,000 cells per well for suspension cultures. Analyzed substances were added in 0.1–50 μM concentration range, with 2 × dilutions, and incubated for 72 h at 37 °C, 5% CО2. After incubation 20 uL of 5 mg/mL of water solution of 3-(4,5-dimethylthiazol-2-yl)-2,5-diphenyltetrazolium bromide (MTT, PANEKO, Moscow, Russia) was added to the cells and they were incubated for additional 4 h. After the incubation the medium was aspirated, cells were dissolved in 100 uL of DMSO and the optical density was measured at 570 nm with a МultiscanFC plate reader (ThermoScientific, Cambridge, MA, USA). The percentage of surviving cells at each dose was calculated by dividing the optical density of treated cells by the optical density of untreated control (which was taken as 100%). The IC50s were calculated in GraphPad Prism 5.0.

[2] = system: MDA-MB231 (mammary adenocarcinoma); assay: MTT cytotoxicity, MDA-MB231; format: cell-based; details: Homo sapiens, MDA-MB-231, 72 h
From the text: as §1, §2

[3] = system: MDA-MB-453 (mammary adenocarcinoma); assay: MTT cytotoxicity, MDA-MB-453; format: cell-based; details: Homo sapiens; MDA-MB-453, MTT, 72 h
From the text: as §1, §2

[4] = system: H1299 (lung adenocarcinoma); assay: MTT cytotoxicity, H1299; format: cell-based; details: Homo sapiens, NCI-H1299, 72 h
From the text: as §1, §2

MTT cytotoxicity, HFB = format: cell-based; details: human, human primary fibroblasts (HFB)
From the text: as §1, §2

Aurora B = Aurora B (Homo sapiens, UniProt Q96GD4); assay: Aurora B kinase inhibition; format: biochemical; details: Table 3; Mean ± SEM
Chain of Aurora B (Q96GD4 whole entry): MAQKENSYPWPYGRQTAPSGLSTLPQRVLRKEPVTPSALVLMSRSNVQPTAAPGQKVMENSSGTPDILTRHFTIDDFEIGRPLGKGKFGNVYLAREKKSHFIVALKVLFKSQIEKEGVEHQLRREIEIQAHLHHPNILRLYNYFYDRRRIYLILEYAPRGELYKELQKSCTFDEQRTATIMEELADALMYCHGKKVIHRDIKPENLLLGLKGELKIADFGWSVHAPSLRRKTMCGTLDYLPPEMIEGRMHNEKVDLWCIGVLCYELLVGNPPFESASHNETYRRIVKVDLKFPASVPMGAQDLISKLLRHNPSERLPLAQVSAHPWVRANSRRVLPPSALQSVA

EPHA2 = EPHA2 (Homo sapiens, UniProt P29317); assay: EPHA2 kinase selectivity; format: biochemical; details: Mean ± SEM
c-Kit = c-Kit (Homo sapiens, UniProt P10721); assay: c-Kit kinase selectivity; format: biochemical; details: Mean ± SEM
Chain of c-Kit (P10721 26-976): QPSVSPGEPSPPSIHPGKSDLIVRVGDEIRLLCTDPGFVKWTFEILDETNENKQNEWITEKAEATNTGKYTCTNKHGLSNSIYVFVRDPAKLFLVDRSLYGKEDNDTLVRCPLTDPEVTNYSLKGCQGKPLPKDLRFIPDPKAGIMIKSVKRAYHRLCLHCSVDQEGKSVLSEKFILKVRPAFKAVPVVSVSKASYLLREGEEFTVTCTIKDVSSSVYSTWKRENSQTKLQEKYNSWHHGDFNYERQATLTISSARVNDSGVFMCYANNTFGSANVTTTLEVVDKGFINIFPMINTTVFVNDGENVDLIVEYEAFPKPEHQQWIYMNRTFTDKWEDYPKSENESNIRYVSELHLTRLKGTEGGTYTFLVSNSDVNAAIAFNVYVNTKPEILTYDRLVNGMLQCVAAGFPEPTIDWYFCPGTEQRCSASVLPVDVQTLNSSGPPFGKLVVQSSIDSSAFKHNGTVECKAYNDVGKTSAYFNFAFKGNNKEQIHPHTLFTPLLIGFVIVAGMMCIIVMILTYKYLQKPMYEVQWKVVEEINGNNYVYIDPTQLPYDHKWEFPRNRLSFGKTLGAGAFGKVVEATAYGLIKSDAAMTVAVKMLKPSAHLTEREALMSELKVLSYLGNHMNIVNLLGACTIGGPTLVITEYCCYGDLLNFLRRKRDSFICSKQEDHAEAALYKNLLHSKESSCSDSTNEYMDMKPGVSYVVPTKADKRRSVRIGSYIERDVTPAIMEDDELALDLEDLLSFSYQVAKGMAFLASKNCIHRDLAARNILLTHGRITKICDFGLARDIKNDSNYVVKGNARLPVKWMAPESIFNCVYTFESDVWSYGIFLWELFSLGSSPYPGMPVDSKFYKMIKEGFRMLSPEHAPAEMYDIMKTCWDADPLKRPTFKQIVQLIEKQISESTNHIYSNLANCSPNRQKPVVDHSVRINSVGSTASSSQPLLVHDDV

[5] = MTT cytotoxicity, MEFs Dko; format: cell-based; details: mouse, MEFs Dko (bax−/−bak−/−)
From the text: as §1, §2

[6] = system: Colo-320 (colon carcinoma); assay: MTT cytotoxicity, Colo-320; format: cell-based; details: Homo sapiens; Colo-320, MTT, 72 h
From the text: as §1, §2

[7] = system: HCT-116 (colon carcinoma); assay: MTT cytotoxicity, HCT-116; format: cell-based; details: Homo sapiens; HCT-116, MTT, 72 h
From the text: as §1, §2

CSK = CSK (Homo sapiens, UniProt P41240); assay: CSK kinase selectivity; format: biochemical; details: Mean ± SEM
Chain of CSK (P41240 whole entry, species assumed): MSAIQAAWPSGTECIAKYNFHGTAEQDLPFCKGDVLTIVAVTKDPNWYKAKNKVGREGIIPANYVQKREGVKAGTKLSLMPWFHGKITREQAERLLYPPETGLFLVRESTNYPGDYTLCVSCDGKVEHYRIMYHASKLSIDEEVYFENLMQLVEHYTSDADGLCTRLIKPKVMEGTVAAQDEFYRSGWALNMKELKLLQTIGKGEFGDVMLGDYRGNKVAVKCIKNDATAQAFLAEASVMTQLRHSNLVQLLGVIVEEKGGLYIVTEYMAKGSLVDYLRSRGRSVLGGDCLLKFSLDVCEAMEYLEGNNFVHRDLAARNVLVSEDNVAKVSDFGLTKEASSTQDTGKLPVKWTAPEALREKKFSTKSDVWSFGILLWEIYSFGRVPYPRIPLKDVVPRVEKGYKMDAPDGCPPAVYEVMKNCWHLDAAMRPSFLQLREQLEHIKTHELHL

RON = RON (Homo sapiens, UniProt Q04912); assay: RON kinase selectivity; format: biochemical; details: Mean ± SEM
[8] = system: H23 (lung adenocarcinoma); assay: MTT cytotoxicity, H23; format: cell-based; details: 72 h
From the text: as §1, §2

[9] = system: A-549 (lung adenocarcinoma); assay: MTT cytotoxicity, A-549; format: cell-based; details: Homo sapiens, A549; A-549, MTT, 72 h
From the text: as §1, §2

[10] = system: A431 (epidermoid carcinoma); assay: MTT cytotoxicity, A431; format: cell-based; details: Homo sapiens, A-431, 72 h
From the text: as §1, §2

[11] = system: HL-60 (acute promyelocytic leukemia); assay: MTT cytotoxicity, HL-60; format: cell-based; details: Homo sapiens; HL-60, MTT, 72 h
From the text: as §1, §2

JNK3 = JNK3 (Homo sapiens, UniProt P53779); assay: JNK3 kinase selectivity; format: biochemical; details: Mean ± SEM
Chain of JNK3 (P53779 whole entry, species assumed): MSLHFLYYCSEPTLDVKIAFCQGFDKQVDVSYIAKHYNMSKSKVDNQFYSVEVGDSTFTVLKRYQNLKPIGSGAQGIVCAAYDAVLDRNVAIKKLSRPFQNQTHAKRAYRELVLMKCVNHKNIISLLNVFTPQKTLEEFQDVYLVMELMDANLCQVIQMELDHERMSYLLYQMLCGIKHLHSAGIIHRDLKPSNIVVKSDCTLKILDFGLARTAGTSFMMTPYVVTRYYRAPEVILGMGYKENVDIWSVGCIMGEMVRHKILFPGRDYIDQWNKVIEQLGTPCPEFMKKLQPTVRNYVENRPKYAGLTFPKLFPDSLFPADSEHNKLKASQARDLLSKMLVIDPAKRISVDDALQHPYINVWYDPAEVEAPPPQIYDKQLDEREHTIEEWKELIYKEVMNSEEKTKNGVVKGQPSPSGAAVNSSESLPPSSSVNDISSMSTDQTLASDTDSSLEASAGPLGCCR

LYN = LYN (Homo sapiens, UniProt P07948); assay: LYN kinase selectivity; format: biochemical; details: Mean ± SEM
Chain of LYN (P07948 whole entry, species assumed): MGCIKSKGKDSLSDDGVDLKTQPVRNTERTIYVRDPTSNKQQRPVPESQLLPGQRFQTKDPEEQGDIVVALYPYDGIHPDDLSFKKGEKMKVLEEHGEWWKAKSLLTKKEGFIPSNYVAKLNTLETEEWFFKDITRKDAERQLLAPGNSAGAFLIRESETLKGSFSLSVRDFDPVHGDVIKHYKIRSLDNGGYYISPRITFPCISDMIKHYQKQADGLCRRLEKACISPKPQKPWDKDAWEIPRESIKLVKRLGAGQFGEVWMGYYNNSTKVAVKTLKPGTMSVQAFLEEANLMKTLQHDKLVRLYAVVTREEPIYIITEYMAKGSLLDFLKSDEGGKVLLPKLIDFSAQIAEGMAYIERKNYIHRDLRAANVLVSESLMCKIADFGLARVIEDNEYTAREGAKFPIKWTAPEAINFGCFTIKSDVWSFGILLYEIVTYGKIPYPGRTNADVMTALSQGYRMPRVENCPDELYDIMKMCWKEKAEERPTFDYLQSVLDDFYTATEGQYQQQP

[12] = system: BxPC3 (pancreatic adenocarcinoma); assay: MTT cytotoxicity, BxPC3; format: cell-based; details: Homo sapiens, BXPC-3, 72 h
From the text: as §1, §2

MTT cytotoxicity, MEF WT = format: cell-based; details: mouse
From the text: as §1, §2

[13] = system: PC3 (prostate adenocarcinoma); assay: MTT cytotoxicity, PC3; format: cell-based; details: 72 h
From the text: as §1, §2

[14] = Solubility (nephelometry); format: physicochemical; details: kinetic from dmso stock
GSK-3 = GSK-3 kinase selectivity; format: biochemical; details: Mean ± SEM
CYP3A4 = CYP3A4 (Homo sapiens, UniProt P08684); assay: CYP3A4 inhibition; format: in vitro ADME; details: Mean ± SEM
Chain of CYP3A4 (P08684 whole entry): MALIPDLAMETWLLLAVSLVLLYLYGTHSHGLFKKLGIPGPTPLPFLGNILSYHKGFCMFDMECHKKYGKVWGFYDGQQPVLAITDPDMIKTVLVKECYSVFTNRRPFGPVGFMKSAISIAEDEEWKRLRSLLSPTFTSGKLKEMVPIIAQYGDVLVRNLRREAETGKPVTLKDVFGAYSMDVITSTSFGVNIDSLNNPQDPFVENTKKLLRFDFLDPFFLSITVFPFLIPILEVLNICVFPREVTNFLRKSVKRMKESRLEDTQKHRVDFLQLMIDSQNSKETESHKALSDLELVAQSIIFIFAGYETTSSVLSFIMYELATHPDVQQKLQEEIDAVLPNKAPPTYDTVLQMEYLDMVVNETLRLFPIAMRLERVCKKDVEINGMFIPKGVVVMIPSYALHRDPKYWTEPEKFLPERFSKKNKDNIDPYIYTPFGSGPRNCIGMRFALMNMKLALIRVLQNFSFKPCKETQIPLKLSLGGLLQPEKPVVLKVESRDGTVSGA

CYP2C19 = CYP2C19 (Homo sapiens, UniProt P33261); assay: CYP2C19 inhibition; format: in vitro ADME; details: Mean ± SEM
Chain of CYP2C19 (P33261 whole entry): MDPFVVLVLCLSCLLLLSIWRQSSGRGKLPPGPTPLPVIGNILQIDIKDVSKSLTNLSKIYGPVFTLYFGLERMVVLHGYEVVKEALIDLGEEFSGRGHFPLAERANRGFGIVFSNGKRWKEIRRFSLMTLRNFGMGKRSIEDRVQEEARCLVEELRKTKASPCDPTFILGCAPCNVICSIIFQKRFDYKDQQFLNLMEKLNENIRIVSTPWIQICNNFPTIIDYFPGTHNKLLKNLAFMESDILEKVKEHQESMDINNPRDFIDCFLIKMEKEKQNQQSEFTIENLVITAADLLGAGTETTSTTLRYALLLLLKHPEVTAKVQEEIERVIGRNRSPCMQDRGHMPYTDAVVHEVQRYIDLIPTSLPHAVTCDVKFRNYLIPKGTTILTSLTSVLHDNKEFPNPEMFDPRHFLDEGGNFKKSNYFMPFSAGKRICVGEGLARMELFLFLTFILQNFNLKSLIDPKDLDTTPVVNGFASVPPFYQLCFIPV

CYP 2C9 = CYP 2C9 (Homo sapiens, UniProt P11712); assay: CYP 2C9 inhibition; format: in vitro ADME; details: Mean ± SEM
Chain of CYP 2C9 (P11712 whole entry): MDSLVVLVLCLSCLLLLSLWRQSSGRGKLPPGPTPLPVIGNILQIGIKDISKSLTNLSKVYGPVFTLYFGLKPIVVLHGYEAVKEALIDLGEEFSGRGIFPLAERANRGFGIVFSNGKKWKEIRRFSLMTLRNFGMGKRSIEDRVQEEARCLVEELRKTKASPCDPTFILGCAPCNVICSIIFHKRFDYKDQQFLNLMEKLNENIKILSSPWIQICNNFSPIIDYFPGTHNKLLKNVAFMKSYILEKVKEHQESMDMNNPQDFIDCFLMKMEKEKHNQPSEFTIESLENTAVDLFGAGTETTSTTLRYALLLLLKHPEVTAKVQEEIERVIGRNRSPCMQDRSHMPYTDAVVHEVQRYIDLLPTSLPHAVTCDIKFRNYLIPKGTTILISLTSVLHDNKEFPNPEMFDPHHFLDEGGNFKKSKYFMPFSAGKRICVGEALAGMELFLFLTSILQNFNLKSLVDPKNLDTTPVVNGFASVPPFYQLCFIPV

Cc1cc(Nc2ncc(Cl)s2)nc(CC2CCN(C(=O)c3cccc(Cl)c3F)CC2)n1 [Compound 13, (3-Chloro-2-fluoro-phenyl)-{4-[4-(5-chloro-thiazol-2-ylamino)-6-methyl-pyrimidin-2-ylmethyl]-piperidin-1-yl}-methanone]
IC50 (Aurora A): 0.0041 ± 0.00035 µM | IC50 [1]: 1.1 ± 0.11 µM | IC50 [2]: 10.5 ± 1.1 µM | IC50 [3]: 8 ± 0.79 µM | IC50 [4]: 1.1 ± 0.1 µM | IC50 at 72 h (MTT cytotoxicity, HFB): 2.8 ± 0.3 µM | IC50 (Aurora B): 0.232 ± 0.0241 µM | IC50 (EPHA2): 9 ± 0.985 µM | IC50 (c-Kit): 17 µM | IC50 at 48 h [5]: 3.6 ± 0.3 µM | IC50 [6]: 1 ± 0.11 µM | IC50 [7]: 4.4 ± 0.5 µM | IC50 (CSK): 9.5 ± 0.101 µM | IC50 (RON): 0.97 ± 0.101 µM | IC50 [8]: 1.2 ± 0.09 µM | IC50 [9]: 5.1 ± 0.4 µM | IC50 [10]: 6.1 ± 0.7 µM | IC50 [11]: 20.9 ± 2.1 µM | IC50 (JNK3): 0.0852 ± 0.0091 µM | IC50 (LYN): 3.27 ± 0.324 µM | IC50 [12]: 2.4 ± 0.14 µM | IC50 at 48 h (MTT cytotoxicity, MEF WT): 2.5 ± 0.3 µM | IC50 [13]: 3.9 ± 0.4 µM | melting point: 221 to 223 °C | solubility [14]: < 10 µg/mL

Cc1cc(Nc2ccn[nH]2)nc(CC2CCN(C(=O)c3cccc(Cl)c3F)CC2)n1 [Compound 14, (3-Chloro-2-fluoro-phenyl)-{4-[4-methyl-6-(2H-pyrazol-3-ylamino)-pyrimidin-2-ylmethyl]-piperidin-1-yl}-methanone]
IC50 (Aurora A): 0.0053 ± 0.00046 µM | IC50 (GSK-3): 0.109 ± 0.0121 µM | IC50 (Aurora B): 18.3 µM | IC50 (CYP3A4): 15.1 ± 0.151 µM | IC50 (c-Kit): 21 µM | IC50 (JNK3): 1.63 ± 0.167 µM | melting point: 125 to 128 °C | solubility [14]: > 100 µg/mL | IC50 (CYP2C19): 9.6 ± 0.96 µM | IC50 (CYP 2C9): 3.9 ± 0.401 µM

Cc1cc(Nc2ccnc(CC3CCN(C(=O)c4cccc(Cl)c4F)CC3)n2)[nH]n1 [Compound 16, (3-Chloro-2-fluoro-phenyl)-{4-[4-(5-methyl-2H-pyrazol-3-ylamino)-pyrimidin-2-ylmethyl]-piperidin-1-yl}-methanone]
IC50 (Aurora A): 0.0035 ± 0.00029 µM | IC50 (GSK-3): 0.293 ± 0.0312 µM | IC50 [1]: 0.3 ± 0.02 µM | IC50 [2]: > 50 µM | IC50 [3]: 12 ± 1.2 µM | IC50 [4]: 1.5 ± 0.12 µM | IC50 at 72 h (MTT cytotoxicity, HFB): 3.3 ± 0.3 µM | IC50 (Aurora B): 4.182 ± 0.0401 µM | IC50 (CYP3A4): 0.596 ± 0.0601 µM | IC50 at 48 h [5]: 4.5 ± 0.5 µM | IC50 [6]: 1.2 ± 0.03 µM | IC50 [7]: 4.2 ± 0.4 µM | IC50 [8]: > 50 µM | IC50 [9]: 8.8 ± 0.9 µM | IC50 [10]: 9 ± 1 µM | IC50 [11]: > 50 µM | IC50 (JNK3): 0.572 ± 0.0561 µM | IC50 [12]: 8.1 ± 0.8 µM | IC50 at 48 h (MTT cytotoxicity, MEF WT): 0.9 ± 0.1 µM | IC50 [13]: 8.3 ± 0.8 µM | solubility [14]: > 100 µg/mL | IC50 (CYP2C19): 0.966 ± 0.0941 µM | IC50 (CYP 2C9): 0.327 ± 0.033 µM
